In patent US7659251B2, “Ligand for G-protein coupled receptor FPRL2” (priority 2004, dated 2010):

Columns and labels:
[1] = molecular target: T1, FPR (Homo sapiens, UniProt P21462, E346A/V101L); test: Aequorin-based assay on CHO-K1 cells expressing FPR; type: cell-based; conditions: FPR expressed in CHO-K1 cells
T1 construct: expressed in transfected cells; host or cells: CHO-K1 (with or without Galpha16 and apoaequorin)
T1 sequence (P21462 1-350 V101L/E346A): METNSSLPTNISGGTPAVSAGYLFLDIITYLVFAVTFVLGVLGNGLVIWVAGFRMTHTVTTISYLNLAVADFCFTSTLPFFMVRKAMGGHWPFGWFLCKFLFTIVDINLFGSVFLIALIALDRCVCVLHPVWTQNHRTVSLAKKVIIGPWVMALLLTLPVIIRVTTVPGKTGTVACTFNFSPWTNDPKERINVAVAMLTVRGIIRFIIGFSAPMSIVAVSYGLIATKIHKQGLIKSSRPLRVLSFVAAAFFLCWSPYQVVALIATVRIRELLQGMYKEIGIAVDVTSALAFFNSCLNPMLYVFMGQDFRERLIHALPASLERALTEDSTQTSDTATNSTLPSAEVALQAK
Description: (§1) The human coding sequences (accession numbers AC005946, M84562 and M60626, respectively) were amplified by PCR from human genomic DNA, cloned into the pcDNA3 (Invitrogen) and pEFIN3 (Euroscreen) vectors and sequenced. The pEFIN3 constructs were transfected, using Fugene 6, into CHO-K1 cells, expressing or not Gα16 and apoaequorin. G418-resistant clones were characterized for receptor expression by Northern blotting. […] Results were expressed as relative light units (RLU) or as the percentage of the response to 20 μM ATP.

[2] = molecular target: T2, FPRL2 (Homo sapiens, UniProt P25089); test: Aequorin-based assay on CHO-K1 cells expressing FPRL2, apoaequorin and Galpha16; type: cell-based; set-up: expressed in transfected cells; host or cells: CHO-K1 (with or without Galpha16 and apoaequorin); conditions: for concentrations required to activate FPRL2 (calcium): FPRL2-expressing CHO-K1 cells
T2 sequence (P25089 1-353): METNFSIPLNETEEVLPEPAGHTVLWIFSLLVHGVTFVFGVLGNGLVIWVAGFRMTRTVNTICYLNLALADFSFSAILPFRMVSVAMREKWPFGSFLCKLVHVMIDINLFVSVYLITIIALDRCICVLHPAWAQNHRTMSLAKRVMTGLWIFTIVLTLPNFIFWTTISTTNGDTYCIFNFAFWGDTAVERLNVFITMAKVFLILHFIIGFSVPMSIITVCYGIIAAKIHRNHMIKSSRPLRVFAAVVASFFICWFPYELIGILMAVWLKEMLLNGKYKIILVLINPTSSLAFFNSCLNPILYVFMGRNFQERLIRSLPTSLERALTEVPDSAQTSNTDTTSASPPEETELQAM
Procedure: Briefly, FPRL2 polypeptide-expressing clones are transfected to coexpress mitochondrial apoaequorin and Gα16. Cells are incubated with 5 μM Coelenterazine H (Molecular Probes) for 4 hours at room temperature, washed in DMEM-F12 culture medium and resuspended at a concentration of 0.5×10^6 cells/ml. Cells are then mixed with test agonist molecules and light emission by the aequorin is recorded with a luminometer for 30 sec. Results are expressed as Relative Light Units (RLU). Controls include assays using membranes isolated from cells not expressing FPRL2 polypeptide (mock transfected), in order to exclude possible non-specific effects of the candidate compound.
FPRL2 expressing clones have been obtained by transfection of CHO-K1 cells to coexpressing mitochondrial apoaequorin and Galpha16, limiting dilution and selection by northern blotting. Positive clones were used for screening with porcine spleen extracts prepared as described above. […] Briefly, cells were collected from plates in PBS containing 5 mM EDTA, pelleted and resuspended at 5×10^6 cells/ml in DMEM-F12 medium. Cells were incubated with 5 μM Coelenterazine H (Molecular Probes) for 4 hours at room temperature. Cells were then washed in DMEM-F12 medium and resuspended at a concentration of 0.5×10^6 cells/ml. Cells were then mixed with test agonist peptides or plates containing tissue extracts and the light emission was recorded for 30 sec using a Microlumat luminometer (Perlin Elmer). Results are expressed as Relative Light Units (RLU).
as §1
The cAMP concentrations were determined using a homogeneous time-resolved fluorescence (HTRF) kit (Cis Bio International). Briefly, cells were detached, resuspended in Krebs Ringer Hepes buffer containing 1 mM 3-Isobutyl-1-methylxanthine, and submitted to 10 μM forskolin, alone or together with increasing concentrations of agonists for 30 min at room temperature. The reaction was stopped by the successive addition of cAMP-XL665 and anti-cAMP cryptate diluted in lysis buffer. The plates were incubated for 60 min at room temperature and read on a Rubystar fluorimeter (BMG). […] A calibration curve was obtained by plotting delta F % versus cAMP concentrations. […] The aequorin-based assay was performed with or without overnight pretreatment with 100 ng/ml Pertussis toxin. […] For FPRL2 polymorphism analysis, HEK cells were transiently transfected with empty and wild-type or Asp338H is FPRL2-containing pcdna vector using calcium phosphate method. Cells were recovered 48 hours later and used for FACS or cAMP experiments.

[3] = molecular target: T3, FPRL1 (Homo sapiens, UniProt P25090); test: Aequorin-based assay on CHO-K1 cells expressing FPRL1; type: cell-based; conditions: FPRL1 expressed in CHO-K1 cells
T3 construct: expressed in transfected cells; host or cells: CHO-K1 (with or without Galpha16 and apoaequorin)
T3 sequence (P25090 1-351): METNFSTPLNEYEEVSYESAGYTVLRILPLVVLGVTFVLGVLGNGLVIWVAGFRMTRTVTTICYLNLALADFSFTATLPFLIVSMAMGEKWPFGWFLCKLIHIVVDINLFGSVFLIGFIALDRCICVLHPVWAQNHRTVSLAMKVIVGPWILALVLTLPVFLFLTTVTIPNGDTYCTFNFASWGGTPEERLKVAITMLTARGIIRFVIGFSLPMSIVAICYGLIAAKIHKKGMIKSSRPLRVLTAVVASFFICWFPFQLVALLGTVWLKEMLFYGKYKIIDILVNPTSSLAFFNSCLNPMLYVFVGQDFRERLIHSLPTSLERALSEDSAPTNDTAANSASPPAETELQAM
Description: as §1

[4] = molecular target: T2, FPRL2; test: Saturation and competition binding on FPRL2-expressing CHO-K1 cells, tracer F2L-[125I]Tyr; set-up: expressed in transfected cells; host or cells: CHO-K1; conditions: for competition for FPRL2 binding: up to concentrations of 3 μM, data not shown
Procedure: FPRL2, FPRL1 and FPR-expressing CHO-K1 cells were plated in 24 wells plates (200,000 cells per well for FPRL2, and 100,000 cells per well for the two other receptors). The next day, the cells were washed twice with a KRH buffer containing 280 mM saccharose and, for FPRL1 and FPR, 0.1 % NaN3. […] Cells were washed twice with ice cold buffer, total radioactivity was recovered with 1 M […] and counted in a gamma counter for […]

[5] = molecular target: T2, FPRL2; test: Aequorine assay on human FPRL2 expressing cells (Example 9); type: cell-based; set-up: expressed in transfected cells; host or cells: CHO-K1 (with or without Galpha16 and apoaequorin); conditions: peptides 2.5 μM to 0.4 nM, Mab 500 ug/ml to 5 ug/ml; FIG. 15
Procedure: (§2) Functional responses were analyzed by recording the luminescence of aequorine in human FPRL2 and FPRL1 expressing cells following the addition of agonists or purified monoclonal antibodies.
(§3) In brief, cells were collected from plates with PBS containing 5 mM EDTA, pelleted, resuspend at 5×10^6 cells/ml in DMEM/F-12 medium containing 0.1% bovine serum albumin, incubated with 5 μM coelenterazine H (molecular probes, Inc. Eugene, Oreg.) for 4 h at room temperature and diluted in DMEM/F-12 medium at a concentration of 5×10^5 cells/ml. Cells where then mixed in an 96 wells plate with the ligands or purified monoclonal antibodies. The light emission was recorded over 60 sec using a microlumat Luminometer (EG&G Berthold, microplate luminometer LB 96V).
(§4) Each data point is in duplicate. […] Human FPRL1 expressing cells were used as negative control to Mab. Functionality of these cells has been control with Humanin.

[6] = molecular target: T3, FPRL1; test: Aequorine assay on human FPRL1 expressing cells (Example 9); type: cell-based; conditions: data not shown
Procedure: as §2, §3, §4

Molecule | concentrations active on FPR [1] | concentrations required to activate FPRL2 (calcium) [2] | concentrations active on FPRL1 [3] | competition for FPRL2 binding [4] | other results
CSCC[C@H](NC(=O)[C@H](Cc1ccc(O)cc1)NC(=O)[C@H](CCCCN)NC(=O)[C@@H](N)Cc1c[nH]c2ccccc12)C(=O)N[C@H](C(=O)N[C@H](CCSC)C(N)=O)C(C)C [WKYMVm] | low nanomolar concentrations | micromolar concentrations | low nanomolar concentrations | did not compete | 
CSCC[C@H](NC(=O)[C@@H](NC(=O)[C@H](CCSC)NC(=O)[C@H](Cc1ccc(O)cc1)NC(=O)[C@H](CCCCN)NC(=O)[C@@H](N)Cc1c[nH]c2ccccc12)C(C)C)C(N)=O [WKYMVM] | low nanomolar concentrations | micromolar concentrations | low nanomolar concentrations | did not compete | 
Pertussis toxin |  |  |  |  | effect of pretreatment on F2L calcium signaling ([2]; 100 ng/ml overnight pretreatment, FIG. 11G): totally inhibited
CSCC[C@H](NC=O)C(=O)N[C@@H](CC(C)C)C(=O)N[C@@H](Cc1ccccc1)C(=O)O [FMLP, formyl-methionine-leucyl-phenylalanine] |  |  |  | did not compete | activity on FPRL2 ([2]; FPRL2-expressing cells): inactive
Humanin: Humanin (HN(N)) peptide (Phoenix Pharmaceuticals), disclosed as a ligand for FPRL2 and FPRL1 [reference compound] |  |  |  |  | activation of human FPRL2 expressing cells [5]: activates; activation of human FPRL1 expressing cells [6]: activates
NSLFGSVETWPWQVL [F2L[7-21], truncated F2L variant lacking the first six aminoacids] |  |  |  |  | activity in aequorin assay ([2]; FIG. 11H): totally inactive; activity in binding assay ([4]; not shown): totally inactive
